Measurements as given in paper PMC7707092, “Discovery and characterization of ORM‐11372, a novel inhibitor of the sodium‐calcium exchanger with positive inotropic activity” (British Journal of Pharmacology, 2020).

Columns and labels:
[1] = test system: anaesthetized rats with myocardial infarctions; experiment: Haemodynamics in anaesthetized MI and sham rats; format: in vivo; conditions: for free plasma concentration: 417 μg·kg^−1·min^−1; for maximal positive inotropic effect (LV + dP/dt max): i.v. infusion 417 μg·kg^−1·min^−1
Description: Male Sprague–Dawley rats (Harlan, Netherlands B.V.) were housed in polycarbonate cages (Makrolon IV with stainless steel wire mesh lids). A maximum of five rats were housed per cage with aspen chip bedding (Tapvei Ky, Kaavi, Finland). Rats had free access to water (twice filtered, Espoon Vesi) and a rodent diet (SDS RM1 (P) SQC pelleted diet, Special Diet Services Ltd, Witham, England). The acclimation period before experiments was at least 5 days. In the MI model, rats (7–8 weeks, 200–250 g) were randomized into either the MI or sham group. In this weight range, a rat is considered a young adult, when its evolution phase is characterized by slow growth and its surgical mortality is lower than that of older animals. Male rats were used to minimize the variability of the cardiac response to several stimuli (Zornoff, Paiva, Minicucci, & Spadaro, 2009).
Rats were anaesthetized with a combination of ketamine (Ketalar® 50 mg·kg−1, i.p.) and medetomidine (Domitor 250 μg·kg^−1, i.p.), intubated, and artificially ventilated with air (Ugo Basile 7025). An MI was induced by the occlusion of the left coronary artery under aseptic conditions (Levijoki, Pollesello, Kaheinen, & Haikala, 2001; Selye, Bajusz, Grasso, & Mendell, 1960). The left coronary artery was ligated at a distance of about 2–3 mm from the origin of the aorta with a silk suture, and the heart was repositioned into the chest. After ligation, the wound was closed carefully. The muscle layer was closed with soluble stitches and skin layers with insoluble stitches, followed by a partial reversal of anaesthesia via the […] administration of atipamezole (Antisedan® 0.3–1 mg·kg^−1, i.m.). The trachea tube was removed, and the trachea and underlying muscle and skin layers were closed immediately. To prevent dehydration, rats were subcutaneously administered with 5 ml of 0.9% NaCl. After surgery, rats were given analgesia with buprenorphine for at least 2 days (0.05 mg·kg^−1, s.c. twice a day). For sham‐operated rats, the same procedure was performed, without ligation. Rats were analysed for 7 days after the MI, for signs of severe acute heart failure such as oedema or breathing difficulties.
(§1) All animals were given multiple ascending infusion doses of ORM‐11372; blinding was not possible. Systemic BP (SP) and left ventricular pressure (LVP) values were measured with pressure transducers (SP for femoral artery: Isotec, Hugo Sachs Elektronic, Germany; a miniature pressure transducer Mikro‐Tip transducer SPR‐249, Millar Instruments was inserted into the left ventricle via the right carotid artery). The signal was amplified (DC‐bridge amplifier type 660, Hugo Sachs Elektronik, Germany), digitized (I/O connector block type SCB‐68, National Instruments, USA), recorded, and analysed (IHME 1.0.9, Fision Ltd, Finland). Left ventricular inotropic effect (LV + dP/dt max), relaxation (LV − dP/dt min), and HR values were analysed from LVP signals.
Haemodynamics were assessed 7 days after the MI (n = 6) or sham operation (n = 6) as follows. Rats were anaesthetized with isoflurane (2.25–2.5%, Baxter) in carbogen (95% O2 and 5% CO2) and nitrous oxide (1:1), using a small rodent ventilator (Ugo Basile 7025, ~10 ml·kg^−1, 60 strokes·min^−1). The rats were infused with 0.9% NaCl in the […] at the stabilization and baseline levels. ORM‐11372 was administered into MI (n = 6) and sham (n = 6) rats in ascending infusion doses of 1.7, 17, 167, and 417 μg·kg^−1·min^−1. Infusions were administered into the jugular vein of MI rats at the infusion rate of 5 ml·kg^−1·h^−1 (Terumo TE‐311, Belgium). Doses were selected based on a pilot study with healthy rats (Figure S20). The total number of animals in the study was 12 + 2, due to the replacement of two MI rats. […]

[2] = test system: human iPS cardiomyocyte action potentials; experiment: Action potentials in spontaneously beating hiPSC cardiomyocytes (Cor.4U); format: cell-based; conditions: 0.1 or 0.3 μM
Method: APs were recorded in spontaneously beating Cor.4U CMs in the current clamp using the perforated patch technique and voltage‐sensitive dye (di‐4‐ANEPPS), in a 96‐well plate format. The latter ratiometric optical measurements were performed on the CellOPTIQ platform at Clyde Biosciences (Newhouse, UK).
Effect of ORM-11372 (A: 0.1 µM; B: 0.3 µM) on human iPS cardiomyocyte action potentials. A left, Action potentials recorded in current-clamp at baseline (black trace), during exposure to ORM-11372 (red trace) and during wash off (grey trace). The dashed line denotes 0 mV. On the right is plotted, for the individual cardiomyocytes (n = 4), the action potential duration (APD) at 30, 50 and 90 % repolarisation in 0.1 µM ORM-11372 as the percentage of their baseline values. B, Action potentials and APDs recorded with voltage sensitive dye at baseline (black trace) and after 30 min treatment with either vehicle (0.1 % DMSO; blue trace and circles) or 0.3 µM ORM-11372 (red trace and squares). The APDs at 30, 50 and 90 % repolarisation […]
vehicle and ORM-11372 (*p<0.05 unpaired Student’s t-test).
(1 picture or pasted object on this page, not shown here)

healthy rabbits = experiment: Haemodynamics in anaesthetized rabbits; format: in vivo, rabbit; set-up: cardiac relaxation / HR / systolic BP: dose or concentration left out as unconfirmed
Method: as §1
Male New Zealand white rabbits (Harlan, Netherlands B.V.) were housed individually in polycarbonate cages (Scanbur Number 8 plastic cages with stainless steel door) with aspen bedding (Aspen Bricks M, Tapvei Ky, Kaavi, Finland). The acclimation period before experiments was at least 21 days. Rabbits weighing 2.0–2.3 kg (age 10–12 weeks) were used for haemodynamically assessing ORM‐11372 (no randomization, baseline values as own control). The diet provided to rabbits was SDS Stanrab (P) SQC pelleted (Special Diet Services Ltd, Witham, England). Water was provided ad libitum in polycarbonate bottles (750 ml).
Rabbits (n = 5) were sedated with i.v. (marginal vein) diazepam (2 mg·kg^−1, Diapam®, Orion Pharma). Anaesthesia was induced with i.v. S‐ketamine (10–20 mg·kg^−1 Ketanest‐S®, Pfizer) and maintained with S‐ketamine i.v. infusion (15–80 mg·kg^−1·h^−1). Animals were placed on a heating table (+38°C), and tracheas were cannulated. Rabbits were ventilated via a rodent ventilator (Ugo Basile 7025, Hugo Sachs Elektronik, Germany; respiratory volume 10 ml·kg^−1, 30 strokes·min^−1 for rabbits). […]

Nc1cccc(-c2ccc(CNc3ccc(F)cc3)o2)c1 [ORM‐11372]
improvement of relaxation ([1]; MI group, lowest infusion dose 1.7 μg·kg^−1·min^−1): 24 ± 2%
systemic arterial BP ([1]; MI or sham groups): no effect
free plasma concentration ([1]; MI rats): 6.7 ± 2.5 nM
maximal positive inotropic effect (LV + dP/dt max) ([1]; MI rats): 18 ± 6%
free plasma concentration ([1]; sham rats): 4.9 ± 0.4 nM
maximal positive inotropic effect (LV + dP/dt max) ([1]; sham rats): 31 ± 6%
hiPSC‐CM APD [2]: significant shortening
HR (healthy rabbits): did not have any effects
cardiac relaxation (healthy rabbits): did not have any effects
systolic BP (healthy rabbits): did not have any effects
increase in cardiac contractility (LV + dP/dt max) (healthy rabbits; infusion 833 μg·kg^−1·min^−1): 35 ± 8%
